Laboratory results from patent publication US20060078961A1, “Systems and methods for rapidly changing the solution environment around sensors” (priority 2002, published 2006).

Tested on: PC-12 cell
Conditions: flow rate 3.24 mm/s, scanning speed 250 μm/s
Text: The flow rate was 3.24 mm/s and the cell scanning speed was 250 μm/s.
The width of each channel is 100 μm, the thickness is 50 μm, and the interchannel spacing is 25 μm. The procedure used for fabricating the microchannels and for patch clamping are identical to that described in Example 2 (see above). The patch clamped cell used was a PC-12 cell, which was placed between 10 to 20 micrometers away from the outlets of the microchannels. Channels 1, 3, 5 and 7 were filled with PBS buffer, while channels 2, 4 and 6 were filled with acetylcholine. The flow rate of the fluid streams was 6.8 mm/s.
The channel structure and experimental setup used in Example 3 can be used to carry out dose-response measurements, in which the concentrations of the ligands in each of the ligand streams differ by predetermined amounts. […] In this 7-channel structure, channels 1, 3, 5 and 7 were filled with PBS buffer, whereas channels 2, 4, and 6 were filled with 1 μM, 12 μM, and 200 μM nicotine, respectively. The flow rate used was 3.24 mm/s and the cell-scanning speed was 250 μm/s. The patch-clamped cell was placed between 10 to 20 μm away from the outlet of the microchannel.

`CN1CCCC1c1cccnc1` (stereo not drawn) [nicotine] was tested, and the Whole-cell current response (1 μM nicotine) was “barely discernible”, the Whole-cell current peak (12 μM nicotine) was “detected with good signal-to-noise ratio” and the “Current peak at 200 μM relative to peak for 12 μM” value (200 μM vs 12 μM nicotine) was 15 to 20 times.
